We go through six compounds from patent US20170146538A1, “PRL-3 AS A BIOMARKER FOR THE PROGNOSIS OF CANCER AND A TARGET FOR THERAPY” (Agency for Science, Technology and Research, priority 2014, published 2017).

What all share (format): cell-based, human
One test deals with TF1-ITD cells. The test can be described thus: Western blot analysis of TF1-ITD cells upon FLT3 or Src inhibition. The settings on record: various concentrations, 24 h, dose-dependent. How it is done: (§1) FIG. 2. […] Whole cell lysates were subjected to western blot analysis with indicated antibodies. GAPDH, loading control. A. (a-d) Western blot analysis of AML cells upon FLT3 inhibition. […] C. (a-b) Western blot analysis of AML cells upon Src inhibition.
(§2) Cells were lysed using modified RIPA buffer (50 mM Tris-HCl, 150 mM NaCl, 1% NP-40, pH 8.0, 1×protease inhibitor cocktail) and lysates were subjected to western blotting with indicated primary antibodies. Proteins recognized by the antibodies were detected using the Chemiluminescent Detection Kit (Pierce, Thermo Scientific, Rockford, Ill.).
(§3) Since STAT5 was known to be a critical downstream target of FLT3-ITD (Mizuki et al, 2000), we tested STAT5 expression level after treatment with FLT3-specific inhibitors; PKC412 or CEP-701 (Odgerel et al, 2007; Smith et al, 2004). […] We next examined whether FLT3-ITD-induced PRL-3 expression might be mediated by JAK or Src, two distinct upstream activators of STAT5 (Robinson et al, 2005; Spiekermann et al, 2003). […] To investigate the role of Src-mediated phosphorylation of STAT5 in FLT3-ITD positive AML cells. AML cells were treated with two distinct Src kinase inhibitors, SU6656 and PP2 (Blake et al, 2000; Nam et al, 2002).
In general terms: A western blot detects proteins with antibodies after separation by electrophoresis.

In the next test the test system is TF1-PRL-3 cells. Kind of test: MTS cell viability assay of TF1-PRL-3 cells treated with inhibitors. The note with it: 72 hr; for reduction in cell number compared to DMSO-treated control cells: 5 μM. An excerpt: FIG. 4. PRL-3 specifically activates c-Jun through ERK and JNK signaling pathways. A. SEAP reporter assay results measuring AP-1 activity in TF-1 cells overexpressing GFP (TF1-GFP) or GFP-PRL-3 (TF1-PRL-3) (mean±SD, n=3). B. (a-b) PRL-3 specifically upregulates c-Jun but not c-Fos. (a) Western blot analysis of TF1-GFP, TF1-PRL-3 and TF1-ITD cells. (b) Western blot analysis after knock-down of endogenous PRL-3 in TF1-ITD cells. GAPDH, loading control. NS, control non-silencing siRNA. C. (a-d) PRL-3-mediated upregulation of c-Jun is dependent on ERK and JNK pathways. (a) Western blot analysis after knock-down of endogenous PRL-3 in TF1-ITD and MOLM-14 cells. (b) Western blot analysis of TF1-GFP and TF1-PRL-3 cells. (c-d) Western blot analysis after knock-down of ERK1/2 or JNK in TF1-PRL-3 cells. GAPDH, loading control. NS, control non-silencing siRNA. D. […] Error bars represent the mean±SD from three independent experiments. AML Cells (1×10^4) were seeded into each well of 96-well tissue culture plates in 100 μl growth media and viable cells were measured after seeding with different inhibitors for 72 hr using the CellTiter^96 Aqueous cell proliferation assay kit. (Promega). Briefly, an aliquot of 20 μl MTS mixture was added at the indicated time of assay and reactions were performed at 37° C. for 2 hours. And absorbance was read at 490 nm wavelength using TECAN microplate reader. After establishment of linear relationship between cell numbers and absorbance from each cell line, acquired absorbance converted to cell number.

The next test has as its system MOLM-14 cells. Kind of test: Western blot analysis of MOLM-14 cells upon FLT3 inhibition. The note with it: various concentrations, 24 h, dose-dependent. How it is done: as §1, §2, §3

For `CN(C)S(=O)(=O)c1ccc2c(c1)/C(=C/c1cc3c([nH]1)CCCC3)C(=O)N2` [SU6656], in the test on TF1-ITD cells, the PRL-3 protein levels entry is listed as “inhibited”, the “phosphorylation of STAT5” value is on record as “inhibited” and the “phosphorylation of Src” value is “inhibited”.
With `COc1cc(/C=C/C(=O)CC(=O)/C=C/c2ccc(O)c(OC)c2)ccc1O` [curcumin], the “cell number, % of DMSO-treated cells” value in the test with TF1-PRL-3 cells (15 μM) is reported as “around 50%”.
Regarding `CC(C)(C)n1nc(-c2ccc(Cl)cc2)c2c(N)ncnc21` [PP2], in the test on TF1-ITD cells, the PRL-3 protein levels entry is on record as “inhibited”, the “phosphorylation of STAT5” value is reported as “inhibited” and the “phosphorylation of Src” value is listed as “inhibited”.
With `N#CC(=C(/N)Sc1ccccc1N)/C(C#N)=C(\N)Sc1ccccc1N` [U0126], the “reduction in cell number compared to DMSO-treated control cells” value in the test on TF1-PRL-3 cells is reported as “around 50%”.
Same read-out and setting: the result for `Oc1c2ccccc2c2c3c(cccc13)N=N2` [SP600125] reads “around 50%”.
As to `CO[C@@H]1[C@H](N(C)C(=O)c2ccccc2)C[C@H]2O[C@]1(C)n1c3ccccc3c3c4c(c5c6ccccc6n2c5c31)C(=O)NC4` [PKC412], in the test with MOLM-14 cells, the PRL-3 protein levels entry was “inhibited”, the “phosphorylation of FLT3” value is on record as “inhibited”, the “phosphorylation of STAT5” value was “inhibited” and the “phosphorylation of Src” value is reported as “inhibited”. Besides, in the test with TF1-ITD cells, the PRL-3 protein levels entry is reported as “inhibited”, the “phosphorylation of FLT3” value was “inhibited”, the “phosphorylation of STAT5” value is given as “inhibited” and the “phosphorylation of Src” value is on record as “inhibited”.
